Experimental data: US7544814B2, “[3.2.0] Heterocyclic compounds and methods of using the same” (Nereus Pharmaceuticals, Inc., priority 2004, dated 2009)
Values joined by “and” are separate entries in the source; they are usually repeats but may differ in a detail not shown here. Equal entries are not always repeated. Where two headings read alike, the source gives them in different places.

Assays:
PC-3 = assay: Cell growth inhibition (resazurin), PC-3; type: cell-based, human; conditions: from EC50 values
U266 [1] = assay: Cell growth inhibition (resazurin), U266; conditions: for EC50: 48 hours drug exposure
B16-F10 [2] = assay: Cell growth inhibition (resazurin), B16-F10; conditions: 48 hours drug exposure, mean ± SD where n≥3
B16-F10 [3] = system: B16-F10
HL-60 = assay: Cell growth inhibition (resazurin), HL-60; type: cell-based, human; conditions: for EC50: Table 4, 48 hours drug exposure; for cytotoxic activity against HL-60, in words: from EC50 values
U266 [4] = system: U266
NF-κB = assay: NF-κB-mediated luciferase reporter gene assay, HEK293 NF-κB/Luc cells, TNF-α stimulation; type: cell-based, human; conditions: for EC50: 1 hr pretreatment, TNF-α 6 hr; for effect on luciferase activity upon TNF-α stimulation, in words: pretreatment of NF-κB/Luc 293 cells
Procedure: The HEK293 NF-κB/luciferase reporter cell line is a derivative of the human embryonic kidney cell line (ATCC; CRL-1573) and carries a luciferase reporter gene under the regulation of 5× NF-κB binding sites. […] When performing the luciferase assay, the DMEM basal medium was replaced with phenol-red free DMEM basal medium and the G418 was omitted.
For NF-κB-mediated luciferase assays, HEK293 NF-κB/luciferase cells were seeded at 1.5×10^4 cells/well in 90 μl phenol-red free DMEM complete medium into Corning 3917 white opaque-bottom tissue culture plates. For Formula II-2, Formula II-4, Formula II-5A, and Formula II-18, a 400 μM starting dilution was made in 100% DMSO and this dilution was used to generate a 8-point half log dilution series. […] For Formula II-20, a 2.5 mM or 8 mM starting solution was made in 100% DMSO and the final test concentrations ranged from 6.3 μM to 2.0 nM or 20 μM to 6.3 nM, respectively. The plates were returned to the incubator for 1 hour. After 1 hr pretreatment, 10 μl of a 50 ng/ml TNF-α solution, prepared in the phenol-red free DMEM medium was added, and the plates were incubated for an additional 6 hr.
At the end of the TNF-α stimulation, 100 μl of Steady Lite HTS luciferase reagent (Packard Bioscience) was added to each well and the plates were left undisturbed for 10 min at room temperature before measuring the luciferase activity. The relative luciferase units (RLU) were measured by using a Fusion microplate fluorometer (Packard Bioscience).

MES-SA = assay: Cell growth inhibition (resazurin), MES-SA; type: cell-based, human; conditions: for cytotoxic activity against MES-SA, in words: from EC50 values
[5] = target: T1, chymotrypsin-like activity of purified rabbit muscle 20S proteasome (Oryctolagus cuniculus, UniProt G1T4Q9); assay: In vitro inhibition of 20S proteasome chymotrypsin-like activity (suc-LLVY-AMC)
T1 sequence (G1T4Q9 1-263): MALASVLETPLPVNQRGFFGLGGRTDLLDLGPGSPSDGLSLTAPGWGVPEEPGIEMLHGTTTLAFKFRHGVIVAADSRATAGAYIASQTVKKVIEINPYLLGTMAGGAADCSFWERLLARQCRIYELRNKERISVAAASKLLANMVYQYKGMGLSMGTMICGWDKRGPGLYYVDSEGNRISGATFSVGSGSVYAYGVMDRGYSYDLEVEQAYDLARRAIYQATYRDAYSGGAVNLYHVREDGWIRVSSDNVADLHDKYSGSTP

[6] = target: T2, caspase-like activity of purified rabbit muscle 20S proteasome (Oryctolagus cuniculus, UniProt A0A5F9DQW2); assay: In vitro inhibition of 20S proteasome caspase-like activity (Z-LLE-AMC)
T2 sequence (A0A5F9DQW2 1-212): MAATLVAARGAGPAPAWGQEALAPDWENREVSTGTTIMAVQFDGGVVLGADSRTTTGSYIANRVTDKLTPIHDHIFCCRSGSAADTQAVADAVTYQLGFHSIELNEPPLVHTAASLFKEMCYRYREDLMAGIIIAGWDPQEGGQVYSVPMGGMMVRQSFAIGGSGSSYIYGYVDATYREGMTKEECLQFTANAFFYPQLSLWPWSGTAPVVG

HT-29 = assay: Cell growth inhibition (resazurin), HT-29; conditions: for cytotoxicity against HT-29, in words: from EC50 values
MES-SA/Dx5 = assay: Cell growth inhibition (resazurin), multidrug resistant MES-SA/Dx5; type: cell-based, human; conditions: from EC50 values
MDA-MB-231 = assay: Cell growth inhibition (resazurin), MDA-MB-231; conditions: for EC50: Homo sapiens, MDA-MB-231, 48 h, read-out: EC50 against MDA-MB-231; for cytotoxicity against MDA-MB-231, in words: from EC50 values
OVCAR-3 = assay: Cell growth inhibition (resazurin), OVCAR-3
HL-60/MX2 = assay: Cell growth inhibition (resazurin), multidrug resistant HL-60/MX2; conditions: from EC50 values
Procedure: Concentrations ranging from 6.32 μM to 2 nM were tested for II-2 and II-4.
HL-60/MX2 is a multidrug resistant tumor cell line derived from the human promyelocytic leukemia cell line, HL-60 and expresses reduced topoisomerase II activity. […] Mitoxantrone, the topoisomerase II targeting agent was included as a control.

RPMI 8226 = assay: Cell growth inhibition (resazurin), RPMI 8226; conditions: for EC50: 48 hours drug exposure; for cytotoxicity against RPMI 8226, in words: from EC50 values
NCI-H292 = assay: Cell growth inhibition (resazurin), NCI-H292; conditions: from EC50 values
[7] = target: T3, trypsin-like activity of purified rabbit muscle 20S proteasome (Oryctolagus cuniculus, UniProt G1SWK8); assay: In vitro inhibition of 20S proteasome trypsin-like activity (Boc-LRR-AMC)
T3 sequence (G1SWK8 1-271): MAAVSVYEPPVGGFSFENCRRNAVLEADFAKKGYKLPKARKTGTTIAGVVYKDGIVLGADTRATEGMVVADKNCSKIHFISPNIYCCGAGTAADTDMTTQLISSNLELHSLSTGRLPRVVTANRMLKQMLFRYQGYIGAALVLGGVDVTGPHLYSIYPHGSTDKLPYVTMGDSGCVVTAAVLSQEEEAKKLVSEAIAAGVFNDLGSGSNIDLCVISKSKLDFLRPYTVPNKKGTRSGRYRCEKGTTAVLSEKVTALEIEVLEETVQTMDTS

[8] = target: T3, trypsin-like activity of purified rabbit muscle 20S proteasome; assay: biochemical
[9] = EC50 values, chymotrypsin-like activity
[10] = Homo sapiens, RPMI-8226, 48 h, read-out: RPMI 8226 EC50, Table 2, mean ± SD where n≥3
[11] = read-out: RPMI 8226 EC50, Table 2, mean ± SD where n≥3

SMILES | cytotoxicity against PC-3, in words (PC-3) | EC50 (U266 [1]; read-out: U266 EC50, Table 2) | cytotoxicity against B16-F10, in words (B16-F10 [3]) | EC50 (HL-60; Homo sapiens, HL-60, 48 h) | cytotoxic activity against HL-60, in words (HL-60) | effect on luciferase activity upon TNF-α stimulation, in words (NF-κB) | cytotoxic activity against MES-SA, in words (MES-SA) | EC50 [5, 9] | cytotoxicity against HT-29, in words (HT-29) | EC50 (MDA-MB-231) | cytotoxicity against MDA-MB-231, in words (MDA-MB-231) | cytotoxic activity against HL-60/MX2, in words (HL-60/MX2) | EC50 (RPMI 8226; [10]) | cytotoxicity against RPMI 8226, in words (RPMI 8226) | EC50 (RPMI 8226; [11]) | cytotoxicity against NCI-H292, in words (NCI-H292) | other results
C[C@@]12OC(=O)[C@]1([C@@H](O)C1CCCCC1)NC(=O)[C@@H]2CCCl [Formula II-2] | cytotoxic | 32 nM | cytotoxic | 237 nM | retained cytotoxic activity | dose-dependent decrease | cytotoxic activity | 13 to 88 nM | cytotoxic | 121 ± 23 nM | cytotoxic | retained cytotoxic activity | 49 nM | cytotoxic | 45 nM | cytotoxic | EC50 (U266 [1]; Homo sapiens, U-266, 48 h, read-out: U266 EC50, Table 2): 39 nM; EC50 (B16-F10 [2]; Mus musculus, B16-F10, 48 h, read-out: EC50 against B16-F10, Table 1): 194 nM; EC50 (B16-F10 [2]; read-out: EC50 against B16-F10, Table 1): 180 nM; EC50 (HL-60): 176 nM; cytotoxicity against U266, in words (U266 [4]): cytotoxic; EC50 (NF-κB; Homo sapiens, HEK293, read-out: EC50, NF-κB-mediated luciferase reporter gene assay, Table 5, values in nM): 71 ± 20 nM; EC50 ([5]; read-out: EC50 Chymotrypsin-like): 19 nM; EC50 ([6]; EC50 Caspase-like, Table 6, values in μM): 1.3 µM and 1.7 µM; EC50 ([6]; EC50 values, caspase-like activity, range in mixed units, summary of Table 6, range from nM to μM): 0.956 to 8.7 µM; EC50 (HT-29; Homo sapiens, HT-29, 48 h, read-out: EC50 against HT-29): 129 ± 21 nM; cytotoxic activity against MES-SA/Dx5, in words (MES-SA/Dx5): cytotoxic activity; cytotoxicity against OVCAR-3, in words (OVCAR-3; from EC50 values): cytotoxic; EC50 (RPMI 8226; Homo sapiens, RPMI-8226, 48 h, read-out: EC50 against RPMI 8226, Table 1): 49 nM; inhibition of the trypsin-like activity of the 20S proteasome, in words ([7]; under the conditions tested): able to inhibit
C[C@@]12OC(=O)[C@]1([C@@H](O)C1CCCCC1)NC(=O)[C@@H]2CCBr [Formula II-4] | cytotoxic | 34 nM | cytotoxic | 143 nM | retained cytotoxic activity | dose-dependent decrease | cytotoxic activity | 13 to 88 nM | cytotoxic | 114 ± 4 nM | cytotoxic | retained cytotoxic activity | 57 nM | cytotoxic | 51 nM | cytotoxic | cytotoxicity against U266, in words (U266 [1]; from EC50 values): cytotoxic; EC50 (NF-κB; Homo sapiens, HEK293, Table 5, values printed in nM, read-out: EC50, NF-κB-mediated luciferase reporter gene assay): 67 nM; EC50 (NF-κB; read-out: EC50, NF-κB-mediated luciferase reporter gene assay, Table 5, values in nM): 88 nM; EC50 (MES-SA; Homo sapiens, MES-SA, 48 h, Table 3, 48 hours drug exposure): 140 nM; EC50 ([5]; EC50 Chymotrypsin-like, Table 6, values in nM): 13 nM; EC50 ([6]; EC50 Caspase-like, Table 6, values in nM): 0.85 µM and 0.637 µM; EC50 ([6]; EC50 values, caspase-like activity, summary of Table 6): 0.213 to 0.85 µM; EC50 (OVCAR-3; Homo sapiens, OVCAR-3, 48 h, read-out: EC50 against OVCAR-3): > 6320 nM; EC50 [8]: 107 nM; inhibition of the trypsin-like activity of the 20S proteasome, in words [7]: able to inhibit; EC50 ([7]; read-out: EC50 Trypsin-like): 110 nM
